Measurements from patent US7060714B2, “Fungal strain acremonium sp.MT70646(KCTC 0916BP), novel compounds produced by this strain and their use” (Korea Research Institute of Bioscience and Biotechnology, priority 1999, dated 2006).
≈ marks a conversion by molar mass, not a printed value.

Key:
[1] = test system: human umbilical vein enothelial cell (HUVEC); experiment: Angiogenesis: HUVEC tube formation on Matrigel; assay type: cell-based; details: 18 hr, read-out: Inhibitory activity against the angiogenesis (tube formation); for inhibition at 1 µg/mL: 1 μg/mL; for inhibition at 3 µg/mL: 3 μg/mL; for inhibition at 10 µg/mL: 10 μg/mL
Method: After thawing Matrigel on ice, 40 μL of the Matrigel was added into each wells of a 96 well plate and placed for 30 min at 37° C. to solidify the Matrigel. Then, 180 μL of human umbilical vein enothelial cell (HUVEC) suspension (2×10^4 cells) was added made into each well of the solidified Matrigel and incubated for 18 hr in a 5% CO2 atmosphere at 37° C. The degree of tube formation was observed by microscope.

Solubility in solvents = assay type: physicochemical
Excerpt: The results of infrared (IR) absorption spectrum; ^1H-NMR and ^13C-NMR spectrum; and HMBC NMR spectrum analyses are shown in the Tables 2 & 3 and FIGS. 1–3.

B16 melanoma cells = experiment: Invasion of B16 melanoma cells (Matrigel invasion); assay type: cell-based; details: for Relative Rate of Invasion (%): control 100; for No. of Cells Invaded: control 420.7 ± 15.6
Method: MT70646 (KCTC 0916BP) against the invasion of B16 melanoma cells through the synthetic basal membranes. […]
BioCoat invasion chamber (precoated Matrigel) was swelled for 30 min by serum-free DMEM and the chamber was placed into the well of 24 well plate which contains 600 μL of HT 1080 conditioned medium. And then 450 μL of melanoma cell suspension (4.5×10^3 cells) in DMEM medium containing 0.5% albumin was added into the chamber. After adding 50 μL of test sample, the chamber was incubated for 22–24 hr at 37° C. in a 5% CO2 atmosphere. And the filter of chamber was detached and fixed with methanol. After staining the filter with 5% crystal violet and the cells on the upper surface of the filters were removed by wiping them with a cotton swab. The cells invaded through the Matrigel and filter to the lower surface were counted under a microscope.

heparinase = molecular target: T1, heparinase (Pedobacter heparinus, UniProt Q05819); experiment: Inhibition of heparinase (heparin / antithrombin III / factor Xa chromogenic assay); assay type: biochemical, Flavobacterium heparinum
T1 construct: the heparinase was isolated from Flavobacterium heparinum; purchased Sigma Co. Ltd. (U.S.A.); host or cells: isolated from Flavobacterium heparinum
T1 sequence (Q05819 22-384): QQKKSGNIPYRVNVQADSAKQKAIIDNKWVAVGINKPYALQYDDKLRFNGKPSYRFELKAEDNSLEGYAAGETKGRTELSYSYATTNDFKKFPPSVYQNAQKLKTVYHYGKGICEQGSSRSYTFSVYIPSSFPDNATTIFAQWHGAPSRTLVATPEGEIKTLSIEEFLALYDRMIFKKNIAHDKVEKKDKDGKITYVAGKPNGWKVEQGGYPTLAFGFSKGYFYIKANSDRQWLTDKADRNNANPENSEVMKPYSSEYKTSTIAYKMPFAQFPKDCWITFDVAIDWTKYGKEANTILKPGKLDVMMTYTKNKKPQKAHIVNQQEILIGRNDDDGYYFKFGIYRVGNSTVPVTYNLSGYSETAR
Method: To 17 μL of reaction buffer (14 mM sodium acetate and 1.4 mM CaCl2, pH 7.0) containing 10 ng of heparin were added 3 μL of test sample along with 0.2 unit of heparinase and placed at room temperature for 15 min. Then, 25 μL of antithrombin III solution was added and allowed to react for 2 min at room temperature and added with 25 μL of factor Xa solution. In one minute, 25 μL of factor Xa substrate was added to react for 5–10 min and then terminated the reaction by adding 25 μL of glacial acetic acid. The light absorbency was measured at 410 nm. The rate of enzyme inhibition was calculated as in the following equation 1, wherein IC50 was the concentration of the inhibitor when the rate of enzyme inhibition reached 50%. Inhibition (%)=(A−C)/(A−B)×100 [Equation 1]
In the above equation 1, A represents the light absorbance of the reagent after reaction when the inhibitor was not added, B represents the light absorbance of the reagent after reaction when enzyme solution was not added, and C represents the light absorbance of the reagent after reaction when the inhibitor was added.
The heparinase used in this experiment was purchased from Sigma Co. Ltd. (U.S.A.), wherein the heparinase was isolated from Flavobacterium heparinum.

[2] = molecular target: T2, heparanase derived from human platelets (Homo sapiens, UniProt Q9Y251); experiment: Inhibition of heparanase (3H-heparan sulfate degradation); assay type: biochemical; details: 10 ng heparanase, 30 min at 37° C., pH 5.1; read-out: IC50 against heparanase
T2 construct: 10 ng of heparanase derived from human platelets; from tissue; host or cells: human platelets
T2 sequence (Q9Y251 158-543 limits assumed): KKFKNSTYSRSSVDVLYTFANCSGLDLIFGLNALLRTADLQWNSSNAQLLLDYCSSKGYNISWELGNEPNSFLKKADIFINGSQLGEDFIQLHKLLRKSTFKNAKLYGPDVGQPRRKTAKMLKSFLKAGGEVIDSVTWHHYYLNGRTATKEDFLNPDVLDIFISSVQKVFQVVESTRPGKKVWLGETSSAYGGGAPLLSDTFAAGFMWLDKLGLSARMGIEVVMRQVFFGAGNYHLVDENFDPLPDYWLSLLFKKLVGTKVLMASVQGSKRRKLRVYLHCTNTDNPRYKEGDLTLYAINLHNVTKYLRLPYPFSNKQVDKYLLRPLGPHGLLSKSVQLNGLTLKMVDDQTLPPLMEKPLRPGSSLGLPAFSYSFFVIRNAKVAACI
T2 sequence (Q9Y251 36-109 limits assumed): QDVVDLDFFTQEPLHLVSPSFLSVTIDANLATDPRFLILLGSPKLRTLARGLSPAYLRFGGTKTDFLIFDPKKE
Excerpt: After the reaction, the reaction mixture was passed through a column filled with HRG-Sepharose beads and eluted out the degraded heparan sulfate by heparanase to measure the radioactivity.

Compound	inhibition at 1 µg/mL [1]	inhibition at 3 µg/mL [1]	inhibition at 10 µg/mL [1]	Physicochemical properties (comparison) (Solubility in solvents)	Relative Rate of Invasion (%) (B16 melanoma cells; 1 μg/mL)	No. of Cells Invaded (B16 melanoma cells; 1 μg/mL)	Relative Rate of Invasion (%) (B16 melanoma cells; 3 μg/mL)	No. of Cells Invaded (B16 melanoma cells; 3 μg/mL)	Relative Rate of Invasion (%) (B16 melanoma cells; 10 μg/mL)	No. of Cells Invaded (B16 melanoma cells; 10 μg/mL)	inhibition at 10 µg/mL (B16 melanoma cells; Mus musculus, B16, 10 μg/mL, read-out: Inhibitory activity against invasion)	IC50 (B16 melanoma cells; Mus musculus, B16, estimated from Table 4, read-out: IC50 against invasion of B16 melanoma cells)	IC50 (heparinase)	Solubility in ethanol, butanol, dimethyl sulfoxide (DMSO) (Solubility in solvents)	Solubility in water, hexane and chloroform (Solubility in solvents)	IC50 [2]
CCCCCCCCCCCCCCCc1cc(OC2OC(C(=O)OC)C(O)C(O)C2O)cc(O)c1C(=O)Oc1cc(C)c(C(=O)O)c(O)c1 (single isomer, unassigned) [CRM646-B]	< 30%	30%	60%	almost same as in the compound CRM646-A	89.5%	376.7 ± 19.7	36.9%	155.3 ± 18.6	13.3%	56.0 ± 8.9	> 80%	~2 µg/mL (≈ 2.84 µM)	25 µM			
CCCCCCCCCCCCCCCc1cc(OC2OC(C(=O)O)C(O)C(O)C2O)cc(O)c1C(=O)Oc1cc(C)c(C(=O)O)c(O)c1 (centres unmarked) [CRM646-A]	< 30%	< 30%	30%		100.1%	421.0 ± 15.6	91.4%	384.4 ± 9.4	71.5%	300.8 ± 10.2			3 µM	well dissolved	not dissolved easily	10 µM
